Test results: ChEMBL document CHEMBL1671789, “Evaluation of quinazoline analogues as glucocerebrosidase inhibitors with chaperone activity” (J Med Chem, 2011)
Activity calls are given as the source filed them. How the calls were made is not given here.

What was measured:
[1] = Inhibition of alpha-galactosidase
[2] = Inhibition of alpha-glucosidase
Further: test concentration or dose not given here.

In the case of `O=S(=O)(c1cnc2ccccc2c1)N1CCN(c2nc(-c3cccs3)nc3ccccc23)CC1`, the Activity [1] is reported as “inactive” and the Activity [2] is reported as “inactive”.
In the case of `O=S(=O)(c1cccc(Br)c1)N1CCN(c2nc(-c3cccs3)nc3ccccc23)CC1`, the Activity [1] is reported as “inactive” and the Activity [2] is reported as “inactive”.
With `O=S(=O)(c1cccc2ccccc12)N1CCN(c2nc(-c3cccs3)nc3ccccc23)CC1` the Activity [1] was “inactive” and the Activity [2] was “inactive”.
In the case of `O=S(=O)(c1ccc2c(c1)CCCC2)N1CCN(c2nc(-c3ccccc3)nc3ccccc23)CC1`, the Activity [1] is reported as “inactive” and the Activity [2] is reported as “inactive”.
For `CC1(C)CCc2cc(S(=O)(=O)N3CCN(c4nc(-c5cccs5)nc5ccccc45)CC3)ccc2O1`, the Activity [1] was “inactive” and the Activity [2] was “inactive”.
In the case of `O=S(=O)(c1ccc2c(c1)CCCC2)N1CCN(c2nc(-c3cccs3)nc3ccccc23)CC1`, the Activity [1] is reported as “inactive” and the Activity [2] is reported as “inactive”.
With `O=[N+]([O-])c1ccc(S(=O)(=O)N2CCN(c3nc(-c4cccs4)nc4ccccc34)CC2)cc1` the Activity [1] was “inactive” and the Activity [2] was “inactive”.
For `O=S(=O)(c1ccc2ncccc2c1)N1CCN(c2nc(-c3cccs3)nc3ccccc23)CC1`, the Activity [1] was “inactive” and the Activity [2] was “inactive”.
In the case of `O=S(=O)(c1cccc(C(F)(F)F)c1)N1CCN(c2nc(-c3cccs3)nc3ccccc23)CC1`, the Activity [1] is reported as “inactive” and the Activity [2] is reported as “inactive”.
In the case of `O=S(=O)(c1ccc(F)cc1)N1CCN(c2nc(-c3cccs3)nc3ccccc23)CC1`, the Activity [1] is reported as “inactive” and the Activity [2] is reported as “inactive”.
With `O=S(=O)(N1CCN(c2nc(-c3cccs3)nc3ccccc23)CC1)C(F)(F)F` the Activity [1] was “inactive” and the Activity [2] was “inactive”.
In the case of `O=S(=O)(c1ccc2c(c1)OCCO2)N1CCN(c2nc(-c3cccnc3)nc3ccccc23)CC1`, the Activity [1] is reported as “inactive” and the Activity [2] is reported as “inactive”.
For `O=S(=O)(c1cccs1)N1CCN(c2nc(-c3cccs3)nc3ccccc23)CC1`, the Activity [1] was “inactive” and the Activity [2] was “inactive”.
With `O=S(=O)(c1ccc(Cl)cc1)N1CCN(c2nc(-c3ccccc3)nc3ccccc23)CC1` the Activity [1] was “inactive” and the Activity [2] was “inactive”.
For `Cc1ccc(S(=O)(=O)N(C)CCN(C)c2nc(-c3cccs3)nc3ccccc23)cc1`, the Activity [1] was “inactive” and the Activity [2] was “inactive”.
In the case of `CCOC(=O)c1ccc(S(=O)(=O)N2CCN(c3nc(-c4cccs4)nc4ccccc34)CC2)cc1`, the Activity [1] is reported as “inactive” and the Activity [2] is reported as “inactive”.
In the case of `Cc1ccc(S(=O)(=O)N2CCN(c3nc(-c4ccc(CN5CCNCC5)s4)nc4ccccc34)CC2)cc1`, the Activity [1] is reported as “inactive” and the Activity [2] is reported as “inactive”.
In the case of `Cc1ccc(S(=O)(=O)N2CCN(c3nc(-c4cccs4)nc(C)c3C)CC2)cc1`, the Activity [1] is reported as “inactive” and the Activity [2] is reported as “inactive”.
With `O=S(=O)(c1ccccc1Cl)N1CCN(c2nc(-c3cccs3)nc3ccccc23)CC1` the Activity [1] was “inactive” and the Activity [2] was “inactive”.
In the case of `O=S(=O)(c1ccccc1C(F)(F)F)N1CCN(c2nc(-c3cccs3)nc3ccccc23)CC1`, the Activity [1] is reported as “inactive” and the Activity [2] is reported as “inactive”.
In the case of `Cc1ccc(S(=O)(=O)N2CCN(c3nc(-c4ccncc4)nc4ccccc34)CC2)cc1`, the Activity [1] is reported as “inactive” and the Activity [2] is reported as “inactive”.
With `O=S(=O)(c1ccccc1Br)N1CCN(c2nc(-c3ccccc3)nc3ccccc23)CC1` the Activity [1] was “inactive” and the Activity [2] was “inactive”.
In the case of `O=S(=O)(c1ccc2ncsc2c1)N1CCN(c2nc(-c3cccs3)nc3ccccc23)CC1`, the Activity [1] is reported as “inactive” and the Activity [2] is reported as “inactive”.
For `CCOC(=O)c1ccc(S(=O)(=O)N2CCN(c3nc(-c4ccccc4)nc4ccccc34)CC2)cc1`, the Activity [1] was “inactive” and the Activity [2] was “inactive”.
For `CC(=O)N1CCN(c2nc(-c3cccs3)nc3ccccc23)CC1`, the Activity [1] was “inactive” and the Activity [2] was “inactive”.
In the case of `NS(=O)(=O)c1ccc(S(=O)(=O)N2CCN(c3nc(-c4ccccc4)nc4ccccc34)CC2)cc1`, the Activity [1] is reported as “inactive” and the Activity [2] is reported as “inactive”.
With `O=[N+]([O-])c1cccc(S(=O)(=O)N2CCN(c3nc(-c4cccs4)nc4ccccc34)CC2)c1` the Activity [1] was “inactive” and the Activity [2] was “inactive”.
For `Cc1ccc(S(=O)(=O)N2CCN(c3nc(-c4ccccc4)nc4ccccc34)CC2)cc1`, the Activity [1] was “inactive” and the Activity [2] was “inactive”.
With `Cc1ccc(S(=O)(=O)N2CCN(c3nc(-c4cccs4)nc4ccccc34)CC2)c(C)c1` the Activity [1] was “inactive” and the Activity [2] was “inactive”.
For `O=S(=O)(c1ccccc1F)N1CCN(c2nc(-c3cccs3)nc3ccccc23)CC1`, the Activity [1] was “inactive” and the Activity [2] was “inactive”.
In the case of `NS(=O)(=O)c1ccc(S(=O)(=O)N2CCN(c3nc(-c4cccs4)nc4ccccc34)CC2)cc1`, the Activity [1] is reported as “inactive” and the Activity [2] is reported as “inactive”.
With `c1csc(-c2nc(N3CCN(Cc4ccc5c(c4)OCCO5)CC3)c3ccccc3n2)c1` the Activity [1] was “inactive” and the Activity [2] was “inactive”.
With `Cc1ccc(S(=O)(=O)N2CCN(c3nc(-c4ccc(CN5CCOCC5)s4)nc4ccccc34)CC2)cc1` the Activity [1] was “inactive” and the Activity [2] was “inactive”.
With `Cc1ccc(S(=O)(=O)N2CCCN(c3nc(-c4cccs4)nc4ccccc34)CC2)cc1` the Activity [1] was “inactive” and the Activity [2] was “inactive”.
For `O=S(=O)(c1ccccc1C(F)(F)F)N1CCN(c2nc(-c3ccccc3)nc3ccccc23)CC1`, the Activity [1] was “inactive” and the Activity [2] was “inactive”.
With `Cc1ccc(S(=O)(=O)N2CCN(c3nc(-c4cccs4)nc4cccnc34)CC2)cc1` the Activity [1] was “inactive” and the Activity [2] was “inactive”.
For `O=S(=O)(c1ccc(C(F)(F)F)cc1)N1CCN(c2nc(-c3cccs3)nc3ccccc23)CC1`, the Activity [1] was “inactive” and the Activity [2] was “inactive”.
For `CCOc1ccc(S(=O)(=O)N2CCN(c3nc(-c4ccccc4)nc4ccccc34)CC2)cc1OCC`, the Activity [1] was “inactive” and the Activity [2] was “inactive”.
With `CC(C)(C)OC(=O)N1CCN(c2nc(-c3cccs3)nc3ccccc23)CC1` the Activity [1] was “inactive” and the Activity [2] was “inactive”.
With `N#Cc1ccccc1S(=O)(=O)N1CCN(c2nc(-c3cccs3)nc3ccccc23)CC1` the Activity [1] was “inactive” and the Activity [2] was “inactive”.
In the case of `O=S(=O)(c1cccc(F)c1)N1CCN(c2nc(-c3cccs3)nc3ccccc23)CC1`, the Activity [1] is reported as “inactive” and the Activity [2] is reported as “inactive”.
For `O=S(=O)(c1ccc(Cl)cc1)N1CCN(c2nc(-c3cccs3)nc3ccccc23)CC1`, the Activity [1] was “inactive” and the Activity [2] was “inactive”.
In the case of `O=S(=O)(c1ccc2c(c1)CCC2)N1CCN(c2nc(-c3ccccc3)nc3ccccc23)CC1`, the Activity [1] is reported as “inactive” and the Activity [2] is reported as “inactive”.
For `O=[N+]([O-])c1ccccc1S(=O)(=O)N1CCN(c2nc(-c3ccccc3)nc3ccccc23)CC1`, the Activity [1] was “inactive” and the Activity [2] was “inactive”.
With `N#Cc1cccc(S(=O)(=O)N2CCN(c3nc(-c4cccs4)nc4ccccc34)CC2)c1` the Activity [1] was “inactive” and the Activity [2] was “inactive”.
With `O=S(=O)(c1ccccc1)N1CCN(c2nc(-c3cccs3)nc3ccccc23)CC1` the Activity [1] was “inactive” and the Activity [2] was “inactive”.
In the case of `Cc1cc(C)cc(S(=O)(=O)N2CCN(c3nc(-c4cccs4)nc4ccccc34)CC2)c1`, the Activity [1] is reported as “inactive” and the Activity [2] is reported as “inactive”.
In the case of `O=S(=O)(c1ccccc1Br)N1CCN(c2nc(-c3cccs3)nc3ccccc23)CC1`, the Activity [1] is reported as “inactive” and the Activity [2] is reported as “inactive”.
For `O=S(=O)(c1ccc2c(c1)OCO2)N1CCN(c2nc(-c3cccs3)nc3ccccc23)CC1`, the Activity [1] was “inactive” and the Activity [2] was “inactive”.
With `O=S(=O)(c1ccc2ccccc2c1)N1CCN(c2nc(-c3ccccc3)nc3ccccc23)CC1` the Activity [1] was “inactive” and the Activity [2] was “inactive”.
In the case of `N#Cc1ccc(S(=O)(=O)N2CCN(c3nc(-c4ccccc4)nc4ccccc34)CC2)cc1`, the Activity [1] is reported as “inactive” and the Activity [2] is reported as “inactive”.
In the case of `O=S(=O)(/C=C/c1ccccc1)N1CCN(c2nc(-c3cccnc3)nc3ccccc23)CC1`, the Activity [1] is reported as “inactive” and the Activity [2] is reported as “inactive”.
For `Cc1ccc(S(=O)(=O)N2CCN(c3nc(-c4ccc(C)s4)nc4ccccc34)CC2)cc1`, the Activity [1] was “inactive” and the Activity [2] was “inactive”.
For `O=S(=O)(c1ccc(Br)cc1)N1CCN(c2nc(-c3ccccc3)nc3ccccc23)CC1`, the Activity [1] was “inactive” and the Activity [2] was “inactive”.
With `O=[N+]([O-])c1ccc(S(=O)(=O)N2CCN(c3nc(-c4ccccc4)nc4ccccc34)CC2)cc1` the Activity [1] was “inactive” and the Activity [2] was “inactive”.
For `Cc1ccc(S(=O)(=O)C2CCN(c3nc(-c4cccs4)nc4ccccc34)CC2)cc1`, the Activity [1] was “inactive” and the Activity [2] was “inactive”.
For `Cc1ccc(S(=O)(=O)N(C)CCCN(C)c2nc(-c3cccs3)nc3ccccc23)cc1`, the Activity [1] was “inactive” and the Activity [2] was “inactive”.
For `O=S(=O)(c1cccc(C(F)(F)F)c1)N1CCN(c2nc(-c3ccccc3)nc3ccccc23)CC1`, the Activity [1] was “inactive” and the Activity [2] was “inactive”.
For `O=C(c1ccccc1)N1CCN(c2nc(-c3cccs3)nc3ccccc23)CC1`, the Activity [1] was “inactive” and the Activity [2] was “inactive”.
In the case of `COc1ccc(S(=O)(=O)N2CCN(c3nc(-c4cccs4)nc4ccccc34)CC2)cc1`, the Activity [1] is reported as “inactive” and the Activity [2] is reported as “inactive”.
In the case of `CC(=O)c1ccc(S(=O)(=O)N2CCN(c3nc(-c4cccs4)nc4ccccc34)CC2)cc1`, the Activity [1] is reported as “inactive” and the Activity [2] is reported as “inactive”.
In the case of `COC(=O)c1nc(N2CCN(S(=O)(=O)c3ccc(C)cc3)CC2)c2ccccc2n1`, the Activity [1] is reported as “inactive” and the Activity [2] is reported as “inactive”.
In the case of `O=S(=O)(c1ccc(F)cc1)N1CCN(c2nc(-c3ccccc3)nc3ccccc23)CC1`, the Activity [1] is reported as “inactive” and the Activity [2] is reported as “inactive”.
With `O=[N+]([O-])c1cccc(S(=O)(=O)N2CCN(c3nc(-c4ccccc4)nc4ccccc34)CC2)c1` the Activity [1] was “inactive” and the Activity [2] was “inactive”.
With `Cc1ccc(S(=O)(=O)N2CCN(c3nc(-c4cccnc4)nc4ccccc34)CC2)cc1` the Activity [1] was “inactive” and the Activity [2] was “inactive”.
In the case of `Cc1ccc(S(=O)(=O)N2CCN(c3nc(-c4ncco4)nc4ccccc34)CC2)cc1`, the Activity [1] is reported as “inactive” and the Activity [2] is reported as “inactive”.
For `O=S(=O)(c1ccc(OC(F)(F)F)cc1)N1CCN(c2nc(-c3cccs3)nc3ccccc23)CC1`, the Activity [1] was “inactive” and the Activity [2] was “inactive”.
With `CC(=O)c1nc(N2CCN(S(=O)(=O)c3ccc(C)cc3)CC2)c2ccccc2n1` the Activity [1] was “inactive” and the Activity [2] was “inactive”.
